The Kd is the equilibrium constant for the complex coming apart. High values mean weaker binding, low ones tighter binding. The Ki is the equilibrium dissociation constant of an inhibitor or competing ligand from its target. Read a high Ki as lower affinity.

Where a SMILES comes first, the peptide text is derived from it.

Four compounds from paper PMC10214524, “A Systematic Approach to the Discovery of Protein–Protein Interaction Stabilizers” (ACS Central Science, 2023) can be followed below.

Assay [1] deals with T1, 14-3-3σ (Homo sapiens, UniProt P31947).
T1 sequence (P31947 1-231 limits assumed): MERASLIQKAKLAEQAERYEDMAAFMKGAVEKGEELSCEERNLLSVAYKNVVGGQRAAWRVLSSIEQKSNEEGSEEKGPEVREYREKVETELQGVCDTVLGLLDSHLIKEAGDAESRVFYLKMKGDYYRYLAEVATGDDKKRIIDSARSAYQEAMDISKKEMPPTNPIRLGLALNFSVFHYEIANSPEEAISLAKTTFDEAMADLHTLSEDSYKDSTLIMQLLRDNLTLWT
In words: 14-3-3σ titration to FITC-labeled phosphopeptide (peptide affinity).
Experimental: (§1) 14-3-3σ/phosphopeptide binding curves to determine binding affinities. (A) Protein titration with 14 -3-3σ in
(§2) (B) Competition assay used to determine Ki of
(§3) acetylated FOXO1 11-mer peptide (Ac-FOXO1) for mass spectrometry experiments. Ac-FOXO1 was titrated from high to
(§4) used to determine Ki of acetylated C-RAF 11-mer peptide (Ac-CRAF). (E) Protein titration with 14-3-3σ in presence of 100
(§5) nM FITC-labeled ERα 15-mer peptide determined KD. (F) Competition assay used to determine Ki of acetylated ΕRα 15-me r
(§6) peptide (Ac-ERα). (G) Protein titration with 14-3-3σ in presence of 100 nM FITC-labeled USP8 13-mer peptide determined
(§7) KD. (H) Competition assay used to determine Ki of acetylated USP8 13-mer peptide (Ac-USP8) . ( I) Protein titration with 14 -
(§8) of acetylated SOS1 13 -mer peptide (Ac-SOS1).

Assay [2] deals with T1, 14-3-3σ. The assay is described as follows: Ac-peptide competition assay against FITC-peptide (peptide affinity).
Experimental: as §1, §2, §3, §4, §5, §6, §7, §8

Take `CC(=O)N1CCC[C@H]1C(=O)N[C@@H](CCCNC(=N)N)C(=O)N[C@@H](CCCNC(=N)N)C(=O)N[C@@H](CCCNC(=N)N)C(=O)N1CCC[C@H]1C(=O)N[C@@H](CCC(=O)O)C(=O)N[C@@H](COP(=O)(O)O)C(=O)N[C@@H](C)C(=O)N1CCC[C@H]1C(=O)N[C@@H](C)C(=O)N[C@@H](CCC(=O)O)C(=O)N[C@@H](CO)C(=O)N[C@@H](CO)C(N)=O` [SOS1, Ac-PRRRPE{pS}APAESS-CONH2] (HELM PEPTIDE1{[ac].P.R.R.R.P.E.[O=C([C@H](COP(=O)(O)O)N[*:1])[*:2]].A.P.A.E.S.S.[am]}$$$$V2.0): the dissociation constant (Kd) at 14-3-3σ [1] stood at 5.06 µM. This compound also returned a Ki at 14-3-3σ [2] of 3.66 µM. `CC[C@H](C)[C@H](NC(=O)[C@H](CC(=O)O)NC(=O)[C@@H]1CCCN1C(=O)[C@H](CO)NC(=O)[C@H](COP(=O)(O)O)NC(=O)[C@H](Cc1ccc(O)cc1)NC(=O)[C@H](CO)NC(=O)[C@H](CCCNC(=N)N)NC(=O)[C@H](CCCCN)NC(=O)[C@H](CC(C)C)NC(=O)[C@H](CCCCN)NC(C)=O)C(=O)N[C@H](C(=O)N[C@@H](CCC(N)=O)C(N)=O)[C@@H](C)O` [USP8, Ac-KLKRSY{pS}SPDITQ-CONH2] (HELM PEPTIDE1{[ac].K.L.K.R.S.Y.[O=C([C@H](COP(=O)(O)O)N[*:1])[*:2]].S.P.D.I.T.Q.[am]}$$$$V2.0) came in with a Kd on 14-3-3σ [1] of 3.77 µM. This compound also showed an inhibition constant (Ki) on 14-3-3σ [2] of 14.3 µM. In turn, `CC(=O)N[C@@H](CCCNC(=N)N)C(=O)N[C@@H](CCC(N)=O)C(=O)N[C@@H](CCCNC(=N)N)C(=O)N[C@@H](CO)C(=O)N[C@H](C(=O)N[C@@H](COP(=O)(O)O)C(=O)N[C@H](C(=O)N1CCC[C@H]1C(=O)N[C@@H](CC(N)=O)C(=O)N[C@H](C(=O)N[C@@H](Cc1c[nH]cn1)C(N)=O)C(C)C)[C@@H](C)O)[C@@H](C)O` [C-RAF, Ac-RQRST{pS}TPNVH-CONH2] (HELM PEPTIDE1{[ac].R.Q.R.S.T.[O=C([C@H](COP(=O)(O)O)N[*:1])[*:2]].T.P.N.V.H.[am]}$$$$V2.0) returned a Kd at 14-3-3σ [1] of 4.64 µM. On 14-3-3σ [2], this compound had a Ki of 9.5 µM.

Turning to `CC(=O)N[C@@H](CCCNC(=N)N)C(=O)N1CCC[C@H]1C(=O)N[C@@H](CCCNC(=N)N)C(=O)N[C@@H](CO)C(=O)N[C@@H](CS)C(=O)N[C@H](C(=O)N[C@@H](Cc1c[nH]c2ccccc12)C(=O)N1CCC[C@H]1C(=O)N[C@@H](CC(C)C)C(=O)N1CCC[C@H]1C(=O)N[C@@H](CCCNC(=N)N)C(N)=O)[C@@H](C)OP(=O)(O)O` [FOXO1, Ac-RPRSC{pT}WPLPR-CONH2] (HELM PEPTIDE1{[ac].R.P.R.S.C.[C[C@@H](OP(=O)(O)O)[C@H](N[*:1])C(=O)[*:2]].W.P.L.P.R.[am]}$$$$V2.0), the inhibition constant Ki at 14-3-3σ [2] turned out to be 0.396 µM.
